Assays:
[1] = biological target: Human plasma kallikrein (Homo sapiens (Human), UniProt P03952); assay: Plasma Kallikrein Assay; type: biochemical; settings: purified Human plasma kallikrein 0.5 nM, substrate Acetyl-K-P-R-AFC, pH 7.4; read-out: PKal IC50
Procedure: (§1) The effectiveness of a compound of the present invention as an inhibitor of plasma kallikrein can be determined using a relevant purified serine protease, and an appropriate synthetic substrate. The rate of hydrolysis of the chromogenic or fluorogenic substrate by the relevant serine protease was measured both in the absence and presence of compounds of the present invention. Assays were conducted at rt or at 37° C. […] A decrease in the rate of fluorescence change in the presence of inhibitor is indicative of enzyme inhibition. Such methods are known to one skilled in the art. The results of this assay are expressed as the half-maximal inhibitory concentrations (IC50), or the inhibitory constant, Ki.
Plasma kallikrein determinations were made in 50 mM HEPES buffer at pH 7.4 containing 150 mM NaCl, 5 mM CaCl2, and 0.1% PEG 8000 (polyethylene glycol; Fisher Scientific). Determinations were made using purified Human plasma kallikrein at a final concentration of 0.5 nM (Enzyme Research Laboratories) and the synthetic substrate, Acetyl-K-P-R-AFC (Sigma #C6608) at a concentration of […].
Activity assays were performed by diluting a stock solution of substrate at least tenfold to a final concentration ≤0.2 Km into a solution containing enzyme or enzyme equilibrated with inhibitor. Times required to achieve equilibration between enzyme and inhibitor were determined in control experiments. The reactions were performed under linear progress curve conditions and fluorescence increase measured at 405 Ex/510 Em nm. Values were converted to percent inhibition of the control reaction (after subtracting 100% Inhibition value). IC50 was determined by inflection point from a four parameter logistic curve fit. Ki was calculated using the Cheng Prusoff equation, Ki=IC50/(1+[S]/Km)).

[2] = biological target: Coagulation factor XIa (Homo sapiens (Human), UniProt P03951); assay: Factor XIa Assay; type: biochemical; settings: human factor XIa 0.04 nM, substrate GPR-AFC, 30 min pre-incubation at 25° C., pH 7.4; read-out: FXIa IC50
Procedure: as §1, with “Coagulation factor XIa” for “plasma kallikrein”
Compounds were pre-incubated for 30 min at 25° C. with human (0.04 nM) factor XIa in 50 mM HEPES buffer with 150 mM sodium chloride, 5 mM calcium chloride, 0.1% PEG 8000, pH 7.4. factor XIa enzymatic activity was determined by addition of the substrate glycine-proline-arginine-7-amido-4-trifluoromethylcoumarin (GPR-AFC) and measurement of the fluorescence at 400/505 nm after a 60 min incubation at 25° C. The % inhibition for each data point was calculated from the data and analyzed using the log (inhibitor) vs. response four parameters equation to determine the half-maximal inhibitory concentrations (IC50). The IC50 were converted to equilibrium inhibitory constants (Ki) using the Cheng-Prusoff equation.

Human plasma kallikrein, sequence (P03952 391-638 limits assumed): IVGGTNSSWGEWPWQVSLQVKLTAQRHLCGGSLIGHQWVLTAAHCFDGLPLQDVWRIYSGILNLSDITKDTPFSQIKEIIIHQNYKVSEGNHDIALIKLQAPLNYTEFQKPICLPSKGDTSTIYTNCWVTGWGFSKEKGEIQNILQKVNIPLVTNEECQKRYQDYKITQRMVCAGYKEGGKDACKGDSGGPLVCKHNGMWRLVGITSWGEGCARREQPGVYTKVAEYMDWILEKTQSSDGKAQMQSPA
Human plasma kallikrein, sequence (P03952 20-390 partner limits assumed): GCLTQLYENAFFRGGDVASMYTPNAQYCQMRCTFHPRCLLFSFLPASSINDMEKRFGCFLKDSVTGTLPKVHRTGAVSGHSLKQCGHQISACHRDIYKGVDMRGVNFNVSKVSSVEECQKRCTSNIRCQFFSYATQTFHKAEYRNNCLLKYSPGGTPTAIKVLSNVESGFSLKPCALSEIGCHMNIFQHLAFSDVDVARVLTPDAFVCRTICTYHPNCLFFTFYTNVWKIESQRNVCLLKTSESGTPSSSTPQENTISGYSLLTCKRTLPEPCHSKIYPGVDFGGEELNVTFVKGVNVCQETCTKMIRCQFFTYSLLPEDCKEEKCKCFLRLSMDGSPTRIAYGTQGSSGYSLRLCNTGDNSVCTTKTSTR
Coagulation factor XIa, sequence (P03951 388-625 limits assumed): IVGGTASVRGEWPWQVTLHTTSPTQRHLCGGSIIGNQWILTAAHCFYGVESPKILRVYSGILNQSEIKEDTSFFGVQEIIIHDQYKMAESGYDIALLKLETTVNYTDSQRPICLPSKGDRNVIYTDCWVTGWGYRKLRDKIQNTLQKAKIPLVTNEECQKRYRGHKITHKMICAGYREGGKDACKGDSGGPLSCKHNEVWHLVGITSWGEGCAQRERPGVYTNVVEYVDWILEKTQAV
Coagulation factor XIa, sequence (P03951 19-387 partner limits assumed): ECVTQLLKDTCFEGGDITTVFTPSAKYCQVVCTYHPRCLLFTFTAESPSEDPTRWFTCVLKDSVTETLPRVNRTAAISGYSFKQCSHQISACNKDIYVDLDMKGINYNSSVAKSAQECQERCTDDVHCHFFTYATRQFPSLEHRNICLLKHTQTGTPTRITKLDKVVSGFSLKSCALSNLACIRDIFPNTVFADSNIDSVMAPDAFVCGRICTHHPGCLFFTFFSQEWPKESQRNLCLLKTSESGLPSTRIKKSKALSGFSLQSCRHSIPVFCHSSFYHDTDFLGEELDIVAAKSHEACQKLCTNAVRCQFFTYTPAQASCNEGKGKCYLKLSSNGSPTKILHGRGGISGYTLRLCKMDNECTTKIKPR

Row | SMILES | IC50 [1] [µM] | IC50 [2] [µM]
1 | O=C1Nc2ccc(Cl)c(F)c2[C@]2(CCN(c3cc(C(=O)NCc4ccc(N5CCC(F)(F)C5)cc4F)cnn3)C2)O1 [Example 8, (S)-6-(6-Chloro-5-fluoro-2-oxo-1,2-dihydrospiro[benzo[d][1,3]oxazine-4,3′-pyrrolidin]-1′-yl)-N-(4-(3,3-difluoropyrrolidin-1-yl)-2-fluorobenzyl)pyridazine-4-carboxamide] | 0.0304 | 10
2 | O=C1Nc2ccc(Cl)c(F)c2[C@]2(CCN(c3cncc(C(=O)NCc4ccc5ccc(=O)oc5c4)n3)C2)O1 [Example 30, (S)-6-(6-Chloro-5-fluoro-2-oxo-1,2-dihydrospiro[benzo[d][1,3]oxazine-4,3′-pyrrolidin]-1′-yl)-N-((2-oxo-2H-chromen-7-yl)methyl)pyrazine-2-carboxamide] | 0.0209 | 10
3 | Nc1nccc2cc(CNC(=O)c3cncc(N4CC[C@]5(C4)OC(=O)Nc4ccc(Cl)c(F)c45)n3)ccc12 [Example 32, (S)-N-((1-Aminoisoquinolin-6-yl)methyl)-6-(6-chloro-5-fluoro-2-oxo-1,2-dihydrospiro[benzo[d][1,3]oxazine-4,3′-pyrrolidin]-1′-yl)pyrazine-2-carboxamide] | 0.019 | 10
4 | C[C@H]1CCN(c2ccc(CNC(=O)c3cncc(N4CC[C@]5(C4)OC(=O)Nc4ccc(Cl)c(F)c45)n3)cn2)C1 [Example 1, (S)-6-(6-Chloro-5-fluoro-2-oxo-1,2-dihydrospiro[benzo[d][1,3]oxazine-4,3′-pyrrolidin]-1′-yl)-N-((6-((S)-3-methylpyrrolidin-1-yl)pyridin-3-yl)methyl)pyrazine-2-carboxamide] | 0.0193 | 10
5 | COCC1CN(c2ccc(CNC(=O)c3cnnc(N4CC[C@]5(C4)OC(=O)Nc4ccc(Cl)c(F)c45)c3)cn2)C1 [Example 27, (S)-6-(6-Chloro-5-fluoro-2-oxo-1,2-dihydrospiro[benzo[d][1,3]oxazine-4,3′-pyrrolidin]-1′-yl)-N-((6-(3-(methoxymethyl)azetidin-1-yl)pyridin-3-yl)methyl)pyridazine-4-carboxamide] | 0.0143 | 10
6 | O=C1Nc2ccc(Cl)c(F)c2[C@]2(CCN(c3cncc(C(=O)NCc4ccc(N5CC(F)C5)nc4)n3)C2)O1 [Example 33, (S)-6-(6-Chloro-5-fluoro-2-oxo-1,2-dihydrospiro[benzo[d][1,3]oxazine-4,3′-pyrrolidin]-1′-yl)-N-((6-(3-fluoroazetidin-1-yl)pyridin-3-yl)methyl)pyrazine-2-carboxamide] | 0.0254 | 10
7 | CCC(NCc1ccc(CNC(=O)c2cnnc(N3CC[C@]4(C3)OC(=O)Nc3ccc(Cl)c(F)c34)c2)cc1)C(F)(F)F (stereo partly drawn) [Example 46, (S)-6-(6-Chloro-5-fluoro-2-oxo-1,2-dihydrospiro[benzo[d][1,3]oxazine-4,3′-pyrrolidin]-1′-yl)-N-(4-(((1,1,1-trifluorobutan-2-yl)amino)methyl)benzyl) pyridazine-4-carboxamide] | 0.038 | 10
8 | O=C1Nc2ccc(Cl)c(F)c2[C@]2(CCN(c3cc(C(=O)NCc4ccc(N5CCC(C(F)(F)F)C5)nc4)cnn3)C2)O1 (stereo in doubt) [Example 9, (S)-6-(6-Chloro-5-fluoro-2-oxo-1,2-dihydrospiro[benzo[d][1,3]oxazine-4,3′-pyrrolidin]-1′-yl)-N-((6-(3-(trifluoromethyl)pyrrolidin-1-yl)pyridin-3-yl)methyl)pyridazine-4-carboxamide] | 0.0075 | 10
9 | C[C@H]1CCN(c2ccc(CNC(=O)c3cncc(N4CC[C@]5(C4)OC(=O)Nc4ccc(Cl)c(F)c45)c3)cn2)C1 [Example 3, (S)-5-(6-Chloro-5-fluoro-2-oxo-1,2-dihydrospiro[benzo[d][1,3]oxazine-4,3′-pyrrolidin]-1′-yl)-N-((6-((S)-3-methylpyrrolidin-1-yl)pyridin-3-yl)methyl)nicotinamide] | 0.0095 | 10
10 | O=C1Nc2ccc(Cl)c(F)c2[C@]2(CCN(c3cncc(C(=O)NCc4ccc(N5CC[C@@H](F)C5)nc4)n3)C2)O1 [Example 39, (S)-6-(6-Chloro-5-fluoro-2-oxo-1,2-dihydrospiro[benzo[d][1,3]oxazine-4,3′-pyrrolidin]-1′-yl)-N-((6-((R)-3-fluoropyrrolidin-1-yl)pyridin-3-yl)methyl)pyrazine-2-carboxamide] | 0.0258 | 10
11 | O=C1Nc2ccc(Cl)c(F)c2[C@]2(CCN(c3cncc(C(=O)NCc4ccc(Cn5ccccc5=O)nc4)c3)C2)O1 [Example 15, (S)-5-(6-Chloro-5-fluoro-2-oxo-1,2-dihydrospiro[benzo[d][1,3]oxazine-4,3′-pyrrolidin]-1′-yl)-N-((6-((2-oxopyridin-1(2H)-yl)methyl)pyridin-3-yl)methyl)nicotinamide] | 0.0006 | 10
12 | CN1CCCC1c1ccc(CNC(=O)c2cnnc(N3CC[C@]4(C3)OC(=O)Nc3ccc(Cl)c(F)c34)c2)cn1 (stereo in doubt) [Example 11, (S)-6-(6-Chloro-5-fluoro-2-oxo-1,2-dihydrospiro[benzo[d][1,3]oxazine-4,3′-pyrrolidin]-1′-yl)-N-((6-(1-methylpyrrolidin-2-yl)pyridin-3-yl)methyl)pyridazine-4-carboxamide] | 0.0039 | 10
13 | CN1CCN(c2ccc(CNC(=O)c3cnnc(N4CC[C@]5(C4)OC(=O)Nc4ccc(Cl)c(F)c45)c3)cn2)CC1 [Example 28, (S)-6-(6-Chloro-5-fluoro-2-oxo-1,2-dihydrospiro[benzo[d][1,3]oxazine-4,3′-pyrrolidin]-1′-yl)-N-((6-(4-methylpiperazin-1-yl)pyridin-3-yl)methyl)pyridazine-4-carboxamide] | 0.0019 | 10
14 | Cc1cnn(Cc2ccc(CNC(=O)c3cnnc(N4CC[C@]5(C4)OC(=O)Nc4ccc(Cl)c(F)c45)c3)cc2)c1 [Example 23, (S)-6-(6-Chloro-5-fluoro-2-oxo-1,2-dihydrospiro[benzo[d][1,3]oxazine-4,3′-pyrrolidin]-1′-yl)-N-(4-((4-methyl-1H-pyrazol-1-yl)methyl)benzyl)pyridazine-4-carboxamide] | 0.0005 | 10
15 | CCC(F)(F)NCc1ccc(CNC(=O)c2cnnc(N3CC[C@]4(C3)OC(=O)Nc3ccc(Cl)c(F)c34)c2)cc1 [Example 44, (S)-6-(6-Chloro-5-fluoro-2-oxo-1,2-dihydrospiro[benzo[d][1,3]oxazine-4,3′-pyrrolidin]-1′-yl)-N-(4-(((1,1-difluoropropyl)amino)methyl)benzyl)pyridazine-4-carboxamide] | 0.0583 | 7.66
16 | O=C1Nc2ccc(Cl)c(F)c2[C@]2(CCN(c3cc(C(=O)NCc4ccc(CN5CC(F)C5)cc4)cnn3)C2)O1 [Example 47, (S)-6-(6-chloro-5-fluoro-2-oxo-1,2-dihydrospiro[benzo[d][1,3]oxazine-4,3′-pyrrolidin]-1′-yl)-N-(4-((3-fluoroazetidin-1-yl)methyl)benzyl)pyridazine-4-carboxamide] | 0.0138 | 10
17 | Cc1cnn(Cc2ccc(CNC(=O)c3ccnc(N4CC[C@]5(C4)OC(=O)Nc4ccc(Cl)c(F)c45)c3)cc2)c1 [Example 22, (S)-2-(6-Chloro-5-fluoro-2-oxo-1,2-dihydrospiro[benzo[d][1,3]oxazine-4,3′-pyrrolidin]-1′-yl)-N-(4-((4-methyl-1H-pyrazol-1-yl)methyl)benzyl)isonicotinamide] | 0.0047 | 10
18 | Cc1cnn(Cc2ccc(CNC(=O)c3cc(N4CC[C@]5(C4)OC(=O)Nc4ccc(Cl)c(F)c45)ccn3)cc2)c1 [Example 25, (S)-4-(6-Chloro-5-fluoro-2-oxo-1,2-dihydrospiro[benzo[d][1,3]oxazine-4,3′-pyrrolidin]-1′-yl)-N-(4-((4-methyl-1H-pyrazol-1-yl)methyl)benzyl)picolinamide] | 0.0165 | 10

From patent publication US20240190892A1, “PLASMA KALLIKREIN INHIBITORS” (Merck Sharp & Dohme LLC, priority 2021, published 2024)
